What was measured:
[1] = system: HXB2 luciferase reporter pseudovirions (HOS-CD4-CXCR4 target cells); assay: Pseudovirion infectivity assay, HXB2; assay type: cell-based, HIV-1; settings: HXB2 strain
[2] = system: JRFL luciferase reporter pseudovirions (HOS-CD4-CCR5 target cells); assay: Pseudovirion infectivity assay, JRFL; assay type: cell-based, HIV-1; settings: JRFL strain

C34-PEG2-Chol: C-peptide (C34) cholesterol conjugate with short PEG2 linker [reference compound]
fold improved potency of cholesterol conjugate compared to C34 [1]: ~ 40 fold

C34-PEG11-Chol: C-peptide (C34) cholesterol conjugate with PEG11 linker
additional fold improvement in potency over short PEG2 linker [1]: 2 fold

C34-PEG80-Chol: C-peptide (C34) cholesterol conjugate with PEG80 linker
fold worse than the optimal PEG length [2]: 4 fold
